Test results reported in article PMC6246607, “Novel AR-12 derivatives, P12-23 and P12-34, inhibit flavivirus replication by blocking host de novo pyrimidine biosynthesis” (Emerging Microbes & Infections, 2018).
Where “and” joins values, the source holds several entries; their conditions need not be identical. Identical values can stand only once.

Experiments:
DENV-2 [1] = assay: Viral entry assay; assay type: cell-based, dengue virus; conditions: 1 µM, A549 cells, DENV-2 MOI 5
Method: A549 cells pretreated with P12-23 (1 µM), P12-34 (1 µM) or Pitstop®2 (5 µM) at 37 ℃ for 1 h were absorbed with DENV-2 (MOI 5) at 4 °C for 1 h. After removing the unbound viruses, cells were shifted to 37 ℃ for 30 min for viral entry. The cell surface-associated viruses were then removed by treatment with trypsin-EDTA (ThermoFisher) at 37 °C for 10 min. Viral entry indicated by E protein positivity was determined using a BD FACSCalibur Flow Cytometer (BD) after immunofluorescent staining with an anti-E mAb[47].

DENV-2 [2] = assay: Viral binding assay; assay type: cell-based, dengue virus; conditions: 1 µM, A549 cells, DENV-2 MOI 5, 4 °C 1 h
Method: A549 cells and DENV-2 separately pretreated with P12-23 (1 µM), P12-34 (1 µM) or heparin (100 unit/ml) at 37 ℃ for 1 h were mixed to allow for viral adsorption at a multiplicity of infection (MOI) of 5 at 4 °C for 1 h. After washing off unbound viruses, RNA was extracted using an RNeasy® Mini Kit (QIAGEN, Hilden, Germany), and viral titers were quantified by real-time RT-PCR as previously described[48] using DENV-2 primers (5′-[…]-3′ and 5′-[…]-3′) and β-actin primers (5′-[…]-3′ and 5′-[…]-3′). After the RNA was normalized to the internal control in each sample, the relative level of viral RNA was determined using the DMSO solvent control.

DENV-2-eGFP = assay: microbe, parasite or virus in culture; assay type: cell-based, dengue virus; conditions: for SI (CC50/IC50): DENV-2-eGFP; for IC50: Dengue virus, DENV2, A549, 24 h
Method: (§1) Approximately 50% of confluent cells seeded in 96-well plates were infected with viruses in the presence of drugs or DMSO as a solvent control. At 24 h post-infection (hpi), cells were fixed with 4% paraformaldehyde at room temperature (RT) for 20 min, permeated with a 0.5% Triton X-100 buffer for 2 min, and blocked with 3% BSA for 30 min. Nuclei were stained with DAPI (Sigma) at RT for 20 min. Viral NS3 was stained with a mouse anti-NS3 monoclonal antibody (mAb)[47] followed by staining with an Alexa Fluor 488-conjugated goat anti-mouse IgG antibody (ThermoFisher) at RT for 1 h. Nine images from different fields per well were acquired and analyzed using an ImageXpress Micro XLS Widefield High-Content Analysis System (Molecular Devices, Sunnyvale, USA). To quantify viral infection, the fluorescence intensities of viral NS3 or eGFP from the reporter virus were measured using MetaXpress® (Molecular Devices, Sunnyvale, USA) and were calculated with a mock control (infection as 0%) and a DMSO solvent control (infection as 100%).

[3] = LDH release cytotoxicity assay; assay type: cell-based, human; conditions: human, A549 cells
Method: (§2) Cells were treated with compounds at the indicated concentrations for 24 h. The release of lactate dehydrogenase (LDH) was measured using a Cytotoxicity Detection Kit (Roche, Basel, Switzerland) after removing cell debris. Cells treated with 1% Triton X-100 were used to determine the maximal LDH release.

A549 cells [4] = assay: LDH release cytotoxicity assay; assay type: cell-based, human; conditions: 24 h; for CC50: A549 cells; for noncytotoxic concentrations: human A549 cells
Method: as §2

JEV-eGFP = assay: microbe, parasite or virus in culture; assay type: cell-based, Japanese encephalitis virus; conditions: for relative potency versus AR-12 (fold): JEV; for SI (CC50/IC50): JEV-eGFP; for IC50: Japanese encephalitis virus, A549, 24 h
Method: as §1

A549 cells [5] = assay: ER stress and autophagy western blot in A549 cells; assay type: cell-based, human; conditions: 1 µM, 24 h
Method: Supplementary figure 2. […] A549 cells with or without DENV-2 (MOI 5) infection were treated with P12-23 (1 μM), tunicamycin (TM) (5 μg/ml), thapsigargin (TG) (0.5 μM), or chemical chaperon 4-Phenylbutyric acid (4-PBA) (10 mM) for 24 h. Cell lysates were harvested for western blot analysis with antibodies against the indicated proteins.

DENV-2 [6] = assay: Viral RNA replication assay (RT-qPCR); assay type: cell-based, dengue virus; conditions: 1 µM added at 1 hpi versus 2′CMA 20 µM, A549 cells, DENV-2 MOI 5
Method: Viral infection (MOI 5) and drug treatment were performed as described for the virus translation assay. Cells were harvested for real-time RT-PCR analysis after removing the cell-free viruses at 1, 2, 3, 6, 9, 12, 18, and 27 hpi. Viral RNA was quantified and normalized with actin RNA as described for the virus binding assay.

ZIKV = assay: High-content image analysis of ZIKV infection (NS3) in A549 cells; assay type: cell-based, Zika virus; conditions: for SI (CC50/IC50) / relative potency versus AR-12 (fold) / IC50: ZIKV; for IC50: Zika virus, MOI 0.5, A549 cells, 24 h
Method: as §1

DENV-2 [7] = assay: Viral translation assay (NS3 western blot); assay type: cell-based, dengue virus; conditions: 1 µM added at 1 hpi, A549 cells, DENV-2 MOI 20
Method: A549 cells absorbed with DENV-2 (MOI 20) at 4 °C for 1 h were washed to remove unbound viruses. After incubating at 37 °C for 1 h to allow viral entry, cells were treated with P12-23 (1 µM), P12-34 (1 µM) or 2′-c-methyladenosine (20 µM). Cells were harvested at 2, 3, 4, and 6 hpi for western blot analysis as previously described[46] with an anti-NS3 mAb[47] and an anti-actin mAb (NB600-501; Novus Biologicals, Littleton, CO, USA). Protein expression levels were quantified using ImageJ.

DENV-1 = assay: High-content image analysis of DENV-1 infection (NS3) in A549 cells; assay type: cell-based, dengue virus
Method: as §1

DHODH = target: T1, DHODH (Homo sapiens, UniProt Q02127); assay: BP12-34 pull-down, DHODH; assay type: binding; conditions: BP12-34 0.25 or 0.5 µM pull-down, A549 cell lysates
T1 construct: endogenous in cells; host or cells: A549 cell lysate
T1 sequence (Q02127 whole entry): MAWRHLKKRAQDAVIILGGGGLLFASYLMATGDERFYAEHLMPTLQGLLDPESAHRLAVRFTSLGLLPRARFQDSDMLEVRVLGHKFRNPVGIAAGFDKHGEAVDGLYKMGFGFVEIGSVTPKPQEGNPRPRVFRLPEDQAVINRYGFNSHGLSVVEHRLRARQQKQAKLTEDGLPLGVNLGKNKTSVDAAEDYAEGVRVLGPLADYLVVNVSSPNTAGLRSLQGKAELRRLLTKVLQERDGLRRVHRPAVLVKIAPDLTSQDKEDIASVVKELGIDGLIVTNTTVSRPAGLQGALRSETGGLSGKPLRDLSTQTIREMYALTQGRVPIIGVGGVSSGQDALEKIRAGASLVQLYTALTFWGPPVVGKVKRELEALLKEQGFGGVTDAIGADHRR
Method: (§3) Supplementary figure 4. P12-34 interacts with cytochrome bc1 complex. Cell lysates of A549 were treated with 0.25 μM (+) or 0.5 μM (++) BP12-34 at 4 ℃ for 1 h, then incubated with streptavidin (SA) beads at 4 ℃ for 30 min. Non-specific binding was removed by washing with PBS. After precipitation, P12-34-associated proteins were analyzed by western blot with the indicated antibodies against DHODH and cytochrome bc1 complex.

DENV-2 [8] = assay: High-content image analysis of DENV-2 infection (NS3) in A549 cells; assay type: cell-based, dengue virus
Method: as §1

[9] = tested on: interferon (IFN)-stimulated response element (ISRE) reporter; assay: ISRE reporter assay and IFN-stimulated gene expression in HEK 293T cells; assay type: cell-based, human; conditions: 1 µM, 24 h
Method: Short synthetic 5′-triphosphate RNA molecules (ssRNA) was synthesized with use of the RiboMAX™ Large Scale RNA Production Kit (P1280, Promega) from control DNA template in the kit, then extracted with the RNeasy® Mini Kit (QIAGEN). About 80% confluent HEK 293T cells in 48 well-plate were co-transfected with pISRE-Luc (Stratagene, Ref 219089) (10 ng/well) and pRL-TK Renilla reporter plasmids (E2241, Promega) (2 ng/well), and increasing doses of ssRNA, then treated with DMSO, 1 μM brequinar, or 1 μM P12-34 for 24h. The luciferase activities were analyzed by using the Dual-Luciferase® Reporter Assay Kit (Promega) and SpectraMax L Microplate Reader (Molecular devices, San Jose, CA, USA). ISRE-Luciferase activity was firstly normalized with Renilla-luciferase activity, then normalized with DMSO control without ssRNA.
Supplementary figure 5. P12-34 amplifies innate immune response. (a) HEK 293T cells were co-transfected with pISRE-luc and pRL-TK Renilla reporter plasmids, and short synthetic 5′-triphosphate RNA molecules (ssRNA), then treated with DMSO, brequinar (1 μM), or P12-34 (1 μM) for 24 h. ISRE-Luciferase activity was normalized with Renilla-luciferase activity in each sample, and then the relative ISRE-Luc level was determined with the DMSO control without ssRNA. Representative data from repeated experiments are shown as mean and SD (n =3). […]

DENV-4 = assay: High-content image analysis of DENV-4 infection (NS3) in A549 cells; assay type: cell-based, dengue virus
Method: as §1

[10] = tested on: DENV-2 (mouse-adaptive NGC strain); assay: DENV challenge of Stat1-/- mice; assay type: in vivo
Method: Animal studies followed the guidelines of the Academia Sinica Institutional Animal Care and Use Committee. Five-week-old Stat1^−/− mice were subcutaneously challenged with 1 × 10^5 plaque-forming units (PFU) of DENV-2 (mouse-adaptive NGC strain)[29]. P12-34 (2.5 mg/kg per day in 500 µl PBS containing 10% DMSO) or vehicle control was intraperitoneally injected into DENV-2-infected mice for the first 6 days. At 1, 3, 5 and 7 days post-inoculation (dpi), the viral loads in sera were determined by RT-qPCR as previously described.

cytochrome bc1 complex = target: T2, cytochrome bc1 complex (Homo sapiens, UniProt P00156+P22695+P31930); assay: BP12-34 pull-down, cytochrome bc1 complex; assay type: binding; conditions: BP12-34 0.25 or 0.5 µM pull-down, A549 cell lysates
T2 construct: endogenous in cells; host or cells: A549 cell lysate
Method: as §3

wild-type DENV (DENV1-4) = assay: High-content image analysis, all four serotypes of wild-type DENV in A549 cells; assay type: cell-based; conditions: Dengue virus, DENV1, A549, read-out: IC50 range over the four serotypes
Method: as §1

DENV-3 = assay: High-content image analysis of DENV-3 infection (NS3) in A549 cells; assay type: cell-based, dengue virus
Method: as §1

[11] = P12-34 1 µM, uridine 50 µg/ml, A549 cells

Compound | effect on viral entry (DENV-2 [1]) | effect on viral binding (DENV-2 [2]) | SI (CC50/IC50) (DENV-2-eGFP; A549 cells) | IC50 (DENV-2-eGFP) [nM] | CC50 at 24 h [3] [nM] | CC50 (A549 cells [4]) [nM] | noncytotoxic concentrations (A549 cells [4]) [µM] | relative potency versus AR-12 (fold) (JEV-eGFP; A549 cells) | SI (CC50/IC50) (JEV-eGFP; A549 cells) | IC50 (JEV-eGFP) [nM] | suppression of intracellular viral RNA replication (DENV-2 [6]) | SI (CC50/IC50) (ZIKV; A549 cells) | relative potency versus AR-12 (fold) (ZIKV; A549 cells) | IC50 (ZIKV) [nM] | effect on NS3 levels at early stage of infection (viral translation) (DENV-2 [7]) | further results
CC(C)(N)C(=O)Nc1ccc(-n2cc(C(F)(F)F)cc2-c2ccc3c(ccc4ccccc43)c2)cc1 [P12-23] | no suppressive effect | no suppressive effect | 297 and 296.7 ± 35.1 | 69.7 ± 8.9 | ~20000 | 20500 ± 100 | ≤ 12.5 | ~ 10 fold | 385.5 ± 11.8 | 53.2 ± 1.6 | more potent than 2′CMA | 158 ± 13.6 | ~ 10 fold | 130 ± 11.7 | did not reduce NS3 levels until 4~6 h post-infection | induction of ER stress (GRP78, eIF2α phosphorylation) or autophagy (LC3B form II) (A549 cells [5]): did not significantly induce ER stress
N[C@@H](Cc1ccccc1)C(=O)Nc1ccc(-n2cc(C(F)(F)F)cc2-c2ccc3c(ccc4ccccc43)c2)cc1 [P12-34] | no suppressive effect | no suppressive effect | 388 and 387.9 ± 14.7 | 52.1 ± 2 | ~20000 | 20300 ± 200 | ≤ 12.5 | ~ 10 fold | 360.3 ± 3.1 | 56.1 ± 0.5 | more potent than 2′CMA | 171.4 ± 16.1 | ~ 10 fold | 119 ± 11.7 | did not reduce NS3 levels until 4~6 h post-infection | SI (CC50/IC50) (DENV-1; DENV-1, A549 cells): 206.3 ± 3.5; IC50 (DENV-1; Dengue virus, DENV1, A549, 24 h): 98 ± 1.7 nM; suppressive effect on DENV replication with added Oro or DHO (DENV-2-eGFP; P12-34 1 µM, A549 cells, DENV-2-eGFP MOI 5): addition of Oro but not DHO could block the suppressive effect; anti-DENV activity in mitochondria-depleted cells (DENV-2-eGFP; ρ0 A549 cells, DENV-2-eGFP MOI 5, 24 h): lost; interaction with DHODH (DHODH): did not appear to interact with DHODH; suppression of JEV replication with uridine supplement (JEV-eGFP; [11]): this effect of uridine was also noted; SI (CC50/IC50) (DENV-2 [8]; DENV-2, A549 cells): 326.5 ± 26.4; IC50 (DENV-2 [8]; Dengue virus, DENV2, A549, 24 h): 62.2 ± 4.9 nM; innate immune responses triggered by ssRNA (ISRE reporter, IFIT1, IRF-1) [9]: enhanced the innate immune responses; SI (CC50/IC50) (DENV-4; DENV-4, A549 cells): 317.8 ± 24.9; IC50 (DENV-4; Dengue virus, DENV4, A549, 24 h): 63.9 ± 5.1 nM; mice alive at 39 dpi ([10]; Stat1-/- mice, subcutaneous DENV-2 challenge, 2.5 mg/kg per day i.p. for first 6 days, n = 5): 60%; viral genome copy numbers in sera ([10]; Stat1-/- mice, subcutaneous DENV-2 challenge, 2.5 mg/kg per day i.p., especially at 3 dpi): significantly reduced; protection against DENV challenge injected intraperitoneally ([10]; virus injected intraperitoneally, data not shown): did not protect mice; binding to cytochrome bc1 complex (cytochrome bc1 complex): bind cytochrome bc1 complex in a dose-dependent manner; IC50 (wild-type DENV (DENV1-4)): 62 to 98 nM; SI (CC50/IC50) (DENV-3; DENV-3, A549 cells): 223.4 ± 8.6; IC50 (DENV-3; Dengue virus, DENV3, A549, 24 h): 90.6 ± 3.4 nM; suppression of ZIKV replication with uridine supplement (ZIKV; [11]): this effect of uridine was also noted
Cc1c(-c2ccc(-c3ccccc3F)cc2)nc2ccc(F)cc2c1C(=O)O [brequinar, reference compound] | – | – | – | – | – | – | – | – | – | – | – | – | – | – | – | effect on DENV replication (DENV-2-eGFP; A549 cells, DENV-2-eGFP MOI 5, reversed by exogenous uridine 50 µg/ml): reduced DENV replication in a dose-dependent manner
